Values of other authors, collected in patent US12000829B2, “Selection of patients for combination therapy” (SYNDAX PHARMACEUTICALS, INC., priority 2018, dated 2024).
Where two headings read alike, the source gives them in different places.

Tests used:
[1] = system: MDSCs and CD14+HLA-DR^Hi monocytes; settings: ER+ breast cancer patients, combined with exemestane
[2] = system: modestly immunogenic mouse tumors; settings: in combination with immune checkpoint blockade agents
[3] = system: syngeneic mouse tumor models of lung and renal cell carcinoma; settings: two syngeneic mouse tumor models; tumor growth and survival
[4] = system: squamous or non-squamous NSCLC; settings: NSCLC and metastatic melanoma cohorts
[5] = system: human carcinoma cell lines

## Nc1ccccc1NC(=O)c1ccc(CNC(=O)OCc2cccnc2)cc1 [Entinostat, N-(2-aminophenyl)-4-[N-(pyridine-3-yl)methoxycarbonylamino-methyl]-benzamide]
[1]
  effect on CD14+HLA-DR^Hi monocytes in patients: increased immunocompetent CD14+HLA-DR^Hi monocytes
  effect on MDSCs in patients: reduction of immunosuppressive MDSCs
[2]
  effect on tumors: can eradicate modestly immunogenic mouse tumors
[3]
  antitumor effect of PD-1 inhibition: enhanced the antitumor effect of PD-1 inhibition

## MPDL3280A: human anti-PD-L1 mAb with engineered Fc domain minimizing ADCC
[4]
  responses: durable responses

## Pembrolizumab: humanized monoclonal IgG4 anti-PD-1 antibody
melanoma; human, in vivo
  additional patients with unconfirmed responses: 8 patients
  biopsies of responding tumors: dense infiltration by CD8^+ T cells
melanoma; less dose intense cohorts
  rate of severe toxicities: < 10%

## avelumab: fully human anti-PD-L1 IgG1 antibody
[5]; NK cells as effectors
  lysis: Lysis was increased
[5]; NK cells preactivated with IL-12
  lysis: increased lysis
[5]; NK-mediated ADCC vs whole PBMCs or dendritic cells isolated from PBMCs
  lysis: Little or no lysis
[5]; PBMCs as effectors
  human carcinoma cell lines in which ADCC was induced: 8 out of 18
[5]; tumor cell lines pretreated with IFN-γ
  cell lines with augmented lysis: 4 out of 10
